Structures can show the parent of a compound that is named as a salt.
biological target: LsrK (Salmonella typhimurium, UniProt Q8ZKQ6); test: biochemical; type: biochemical, S. typhimurium; conditions: not given
Sequence (Q8ZKQ6 whole entry): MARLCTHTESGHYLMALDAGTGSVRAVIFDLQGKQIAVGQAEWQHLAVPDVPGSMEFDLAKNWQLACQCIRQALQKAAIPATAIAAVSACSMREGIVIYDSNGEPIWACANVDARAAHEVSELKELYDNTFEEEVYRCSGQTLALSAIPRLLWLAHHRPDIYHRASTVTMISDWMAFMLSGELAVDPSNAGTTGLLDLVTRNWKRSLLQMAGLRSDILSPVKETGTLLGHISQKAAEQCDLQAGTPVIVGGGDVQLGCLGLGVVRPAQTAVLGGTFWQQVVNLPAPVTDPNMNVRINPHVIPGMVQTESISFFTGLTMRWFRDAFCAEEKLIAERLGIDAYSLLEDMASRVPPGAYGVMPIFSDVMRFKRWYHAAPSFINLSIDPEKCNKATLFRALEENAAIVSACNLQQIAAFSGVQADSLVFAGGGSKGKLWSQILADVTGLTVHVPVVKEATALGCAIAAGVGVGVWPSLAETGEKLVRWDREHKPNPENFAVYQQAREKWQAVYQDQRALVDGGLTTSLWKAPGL

Row | SMILES | inhibition at 50 µM [%] | IC50 [µM]
1 | C[C@H]1C(=O)CC[C@@H]2[C@]1(C)CC[C@H]1[C@@]2(C)CC[C@@]2(C)[C@@H]3CC(C)(C)CC[C@]3(C)CC[C@]12C [FRIEDELIN] | 1 | –
2 | Cc1cccc(C)c1NC(=O)c1ccccc1C(=O)O [FTAXILIDE] | 4 | –
3 | Cc1cc(O)c(C=O)c2c1C(=O)Oc1c(COC(=O)/C=C/C(=O)O)c(O)c(C(=O)O)c(C)c1O2 [FUMARPRO[…]] | 150 | 7
4 | O=C1OC(CN2CCOCC2)CN1/N=C/c1ccc([N+](=O)[O-])o1 (stereo not drawn) [FURALTADONE] | 2 | –
5 | CC[N+](CC)(CC)CCOc1cccc(OCC[N+](CC)(CC)CC)c1OCC[N+](CC)(CC)CC [GALLAMINE TRIETHIODIDE] | 1 | –
6 | CC(=O)O[C@@H]1C[C@H]2C(C)(C)C(=O)C=C[C@]2(C)[C@H]2CC[C@@]3(C)[C@H](c4ccoc4)OC(=O)[C@H]4O[C@]43[C@@]21C [GEDUNIN] | 0 | –
7 | CO/N=C1\CN(c2nc3c(cc2F)c(=O)c(C(=O)O)cn3C2CC2)CC1CN (stereo not drawn) [GEMIFLOXACIN MESYLATE] | 0 | –
8 | O=c1c(-c2ccc(O)cc2)coc2cc(O)cc(O)c12 [GENISTEIN] | 2 | –
9 | CN(C)c1ccc(C(=C2C=CC(=[N+](C)C)C=C2)c2ccc(N(C)C)cc2)cc1 [GENTIAN VIOLET] | 11 | –
10 | Cc1ccc(S(=O)(=O)NC(=O)NN2CC3CCCC3C2)cc1 (stereo not drawn) [GLICLAZIDE] | 1 | –
11 | Cc1cnc(C(=O)NCCc2ccc(S(=O)(=O)NC(=O)NC3CCCCC3)cc2)cn1 [GLIPIZIDE] | 1 | –
12 | O=C1O[C@H](CO)[C@@H](O)[C@H](O)[C@H]1O [GLUCONOLACTONE] | 0 | –
13 | N[C@H]1C(O)O[C@H](CO)[C@@H](O)[C@@H]1O (stereo partly drawn) [GLUCOSAMINE HYDROCHLORIDE] | 1 | –
14 | N[C@@H](CCC(=O)N[C@@H](CS)C(=O)NCC(=O)O)C(=O)O [GLUTATHIONE] | 1 | –
15 | C[C@H](CCC(=O)NCC(=O)O)[C@H]1CC[C@H]2[C@@H]3[C@H](O)C[C@@H]4C[C@H](O)CC[C@]4(C)[C@H]3C[C@H](O)[C@]12C [GLYCOCHOLIC ACID] | 1 | –
16 | C[N+]1(C)CCC(OC(=O)C(O)(c2ccccc2)C2CCCC2)C1 (stereo not drawn) [GLYCOPYRROLATE] | 0 | –
17 | N[C@@H](C(=O)O)[C@@H](O)[C@H](O)[C@H](O)CO [GL[…]] | 1 | –
18 | O=c1c(O)c(-c2ccc(O)c(O)c2)oc2c(O)c(O)cc(O)c12 [GOSSYPETIN] | 115 | –
19 | Cc1cc2c(C(C)C)c(O)c(O)c(C=O)c2c(O)c1-c1c(C)cc2c(C(C)C)c(O)c(O)c(C=O)c2c1O [GOSSYPOL] | 83 | –
20 | COC1=CC(=O)C[C@@H](C)[C@]12Oc1c(Cl)c(OC)cc(OC)c1C2=O [GRISEOFULVIN] | 1 | –
21 | COc1ccccc1OCC(O)CO (stereo not drawn) [GUAIFENESIN] | 0 | –
22 | N=C(N)N/N=C/c1c(Cl)cccc1Cl [GUANABENZ ACETATE] | 0 | –
23 | CC1=C(CCC(=O)O)c2cc3[nH]c(cc4nc(cc5[nH]c(cc1n2)c(C)c5C(C)O)C(C)=C4C(C)O)c(C)c3CCC(=O)O (stereo not drawn) [HAEMATOPORPHYRIN] | 55 | –

Row | SMILES | inhibition at 50 µM [%] | IC50 [µM]
24 | CC1(C)O[C@@H]2C[C@H]3[C@@H]4CCC5=CC(=O)CC[C@]5(C)[C@@]4(F)[C@@H](O)C[C@]3(C)[C@]2(C(=O)CCl)O1 [HALCINONIDE] | 0 | –
25 | CC1=NCCc2c1[nH]c1cc(O)ccc21 [HARMALOL HYDROCHLORIDE] | 4 | –
26 | Cc1nccc2c1[nH]c1cc(O)ccc12 [HARMOL HYDROCHLORIDE] | 3 | –
27 | C=C1C(=O)O[C@@H]2C[C@@]3(C)CCC[C@H](C)C3=C[C@H]12 [HELENINE] | 2 | –
28 | O=C1C=C2CC3(O)COc4c(ccc(O)c4O)C3=C2C=C1O (stereo not drawn) [HEMATEIN] | 107 | –
29 | COc1ccc([C@@H]2CC(=O)c3c(O)cc(O)cc3O2)cc1O [HESPERETIN] | 0 | –
30 | COc1cc(O)c2c(=O)cc(C)oc2c1CC=C(C)C [HETEROPEUCENIN. METHYL ETHER] | 1 | –
31 | Oc1c(Cl)cc(Cl)c(Cl)c1Cc1c(O)c(Cl)cc(Cl)c1Cl [HEXACHLOROPHENE] | 112 | –
32 | C[N+](C)(C)CCCCCC[N+](C)(C)C [HEXAMETHONIUM BROMIDE] | 2 | –
33 | CC[C@H](c1ccc(O)cc1)[C@@H](CC)c1ccc(O)cc1 [HEXESTROL] | 3 | –
34 | CCCCCCc1ccc(O)cc1O [HEXYLRESORCINOL] | 0 | –
35 | NCCc1c[nH]cn1 [HISTAMINE DIHYDROCHLORIDE] | 3 | –
36 | C[N+]1(C)[C@@H]2CC[C@H]1C[C@@H](OC(=O)C(O)c1ccccc1)C2 (stereo partly drawn) [HOMATROPINE METHYLBROMIDE] | 0 | –
37 | CC[n+]1c(-c2ccccc2)c2cc(N)ccc2c2ccc(N)cc21 [HOMIDIUM BROMIDE] | 72 | –
38 | CCN(CC)CCNc1ccc(CO)c2sc3ccccc3c(=O)c12 [HYCANTHONE] | 1 | –
39 | Oc1ccc(O)cc1 [HYDROQUINONE] | 0 | –
40 | CCCCCC(=O)O[C@]1(C(C)=O)CC[C@H]2[C@@H]3CCC4=CC(=O)CC[C@]4(C)[C@H]3CC[C@@]21C [HYDROXYPROGESTERONE CAPROATE] | 3 | –
41 | Cc1cccc(C(=O)O)c1O [HYDROXYTOLUIC ACID] | 1 | –
42 | OCCOCCN1CCN(C(c2ccccc2)c2ccc(Cl)cc2)CC1 (stereo not drawn) [HYDROXYZINE PAMOATE] | 125 | –
43 | O=c1[nH]cnc2nc[nH]c12 [HYPOXANTHINE] | 2 | –
44 | COc1ccc2c(C)cc(=O)oc2c1 [H[…] ETHER] | 0 | –
45 | Cc1cc(O)c(C=O)c(O)c1C(=O)O [H[…]] | 1 | –
46 | COc1ccc(-c2oc3c(CC=C(C)C)c(O[C@@H]4O[C@H](CO)[C@@H](O)[C@H](O)[C@H]4O)cc(O)c3c(=O)c2O[C@@H]2O[C@@H](C)[C@H](O)[C@@H](O)[C@H]2O)cc1 [ICARIIN] | 36 | –

Row | SMILES | inhibition at 50 µM [%] | IC50 [µM]
47 | CC(C)[N+]1(C)[C@@H]2CC[C@H]1C[C@@H](OC(=O)C(CO)c1ccccc1)C2 (stereo partly drawn) [IPRATROPIUM BROMIDE] | 0 | –
48 | CC(C)Oc1ccc2c(=O)c(-c3ccccc3)coc2c1 [IPRIFLAVONE] | 2 | –
49 | CCCCC1=NC2(CCCC2)C(=O)N1Cc1ccc(-c2ccccc2-c2nnn[nH]2)cc1 [IRBESARTAN] | 10 | –
50 | COc1c(O)cc(O)cc1O [IRETOL] | 1 | –
51 | COc1cc(-c2coc3cc(O[C@@H]4O[C@H](CO)[C@@H](O)[C@H](O)[C@H]4O)c(OC)c(O)c3c2=O)cc(O)c1OC [IRIDIN] | 1 | –
52 | O=c1c(-c2cc(O)c(O)c(O)c2)coc2cc(O)c(O)c(O)c12 [IRIGENOL] | 90 | –
53 | CC(=O)Oc1cc(-c2coc3cc(OC(C)=O)c(OC(C)=O)c(OC(C)=O)c3c2=O)cc(OC(C)=O)c1OC(C)=O [IRIGINOL HEXAACEATATE] | 114 | –
54 | CC(C)Nc1ncccn1 [ISAXONINE] | 0 | –
55 | CCC(NC(C)C)C(O)c1ccc(O)c(O)c1 (stereo not drawn) [ISOETHARINE MESYLATE] | 2 | –
56 | C=C1CCC2C(CC2(C)C)C(=O)CCC1O (stereo not drawn) [ISOKOBUSONE] | 3 | –
57 | C/C=C/c1ccc2c(c1)OCO2 [ISOSAFROLE] | 1 | –
58 | O=[N+]([O-])O[C@@H]1CO[C@H]2[C@@H]1OC[C@@H]2O [ISOSORBIDE MONONITRATE] | 0 | –
59 | CC(COc1ccccc1)NC(C)C(O)c1ccc(O)cc1 (stereo not drawn) [ISOXSUPRINE HYDROCHLORIDE] | 2 | –
60 | O=C(O)/C=C/C=C/c1ccccc1 [JUAREZIC ACID] | 1 | –
61 | O=C1C=CC(=O)c2c(O)cccc21 [JUGLONE] | 88 | –
62 | O=c1c(O)c(-c2ccc(O)cc2)oc2cc(O)cc(O)c12 [KAEMPFEROL] | 0 | –
63 | COC1=CC(=O)O[C@@H](/C=C/c2ccccc2)C1 [KAWAIN] | 0 | –
64 | O=C(c1ccccc1)c1ccc2n1CCC2C(=O)O (stereo not drawn) [KETOROLAC TROMETHAMINE] | 0 | –
65 | CN1CCC(=C2c3ccccc3CC(=O)c3sccc32)CC1 [KETOTIFEN FUMARATE] | 1 | –
66 | OC[C@H]1O[C@@H](n2cnc3c(NCc4ccco4)ncnc32)[C@H](O)[C@@H]1O [KINETIN RIBOSIDE] | 0 | –
67 | CC1(C)C[C@@H]2C(=O)CC[C@H]3O[C@]3(C)CC[C@H]21 [KOBUSONE] | 1 | –
68 | COc1ccc(-c2coc3cc(O)ccc3c2=O)c(O)c1O [KOPARIN] | 118 | –

same assay, conditions: 50 µM

Row | SMILES | Inhibition (%)
69 | CC[C@H](CC[C@@H](C)[C@H]1CC[C@H]2[C@@H]3CC[C@H]4C[C@@H](O)CC[C@]4(C)[C@H]3CC[C@]12C)C(C)C [FUCOSTANOL] | 1
70 | CCOC(=O)c1ncn2c1CN(C)C(=O)c1cc(F)ccc1-2 [FUMAZENIL] | 0
71 | Cl.O=c1[nH]oc2c1CCNC2 [GABOXADOL HYDROCHLORIDE] | 1
72 | NC(=O)CC[C@H](N)C(=O)O [GLUTAMINE (L)] | 0
73 | O=c1c(O)c(-c2ccc(O)c(O)c2)oc2c(O[C@@H]3O[C@H](CO)[C@@H](O)[C@H](O)[C@H]3O)c(O)cc(O)c12 [GOSSYPIN] | 57
74 | C[N+]1(C)CCOC(O)(c2ccc(-c3ccc(C4(O)C[N+](C)(C)CCO4)cc3)cc2)C1.[Br-].[Br-] (stereo not drawn) [HEMICHOLINIUM BROMIDE] | 1
75 | COc1ccc([C@@H]2CC(=O)c3c(O)cc(O[C@@H]4O[C@H](CO[C@@H]5O[C@@H](C)[C@H](O)[C@@H](O)[C@H]5O)[C@@H](O)[C@H](O)[C@H]4O)cc3O2)cc1O [HESPERIDIN] | 1
76 | CCC(Cc1c(I)cc(I)c(N)c1I)C(=O)O (stereo not drawn) [IOPANIC ACID] | 16
77 | COc1cc(-c2coc3cc(OCc4ccccc4)c(OC)c(O)c3c2=O)cc(O)c1OC [IRIGENIN. 7-BENZYL ETHER] | 2
78 | CC1=C(/C=C/C(C)=C/C=C/C(C)=C\C(=O)O)C(C)(C)CCC1 [ISOTRETINON] | 1
79 | C[C@H]1O[C@H](OC2[C@@H](O)[C@@H](O)C(O)[C@H](O)[C@H]2O)[C@@H](N)C[C@@H]1N=C(N)C(=O)O.Cl (stereo partly drawn) [KASUGAMYCIN HYDROCHLORIDE] | 1
80 | CCCCS(=N)(=O)CCC(N)C(=O)O [L-BUTHIONINE SULFOXIMINE] | 20
